Measured values as given in patent publication US20150283127A1, “SAQUINAVIR-NO FOR IMMUNOMODULATION” (ONCONOX APS, priority 2012, published 2015).

Legend:
[1] = system: peripheral blood mononuclear cells; conditions: concentrations between 5 and 20 mM; cited from earlier work
human PBMC = conditions: PMA plus ionomycin, cited from earlier work
[2] = system: melanoma, astrocytoma, prostate cancer cells and various human multidrug resistant tumor cell lines; conditions: cited from earlier work
rat LNC [3] = test: Cytokine generation (ELISA) in ConA-stimulated rat LNC; type: cell-based; conditions: 24 hours, vs untreated control cells
Text: (§1) Experimental animals (C57BL/6 mice, BALB/c mice and Dark Agouti rats) were obtained from the Animal House Facility of the Institute for Biological Research “Sinisa Stanković”, Belgrade, Serbia. Spleen cells (SPC) were isolated from murine spleens and lymph node cells (LNC) were obtained from rat cervical lymph nodes of untreated animals. Draining lymph node cells (DLNC) were obtained from popliteal lymph nodes 8-10 days after immunization of rats with myelin basic protein (guinea pig MBP, kind gift from professor Alexander Fluegel, University of Goettingen, Germany) and complete Freund's adjuvant (CFA, Difco, Detroit, Mich.). […] Obtained purity of CD4 population was more than 97% as determined by flow cytometry. […]
Cytokine concentration in cell culture supernatants was determined by sandwich ELISA using MaxiSorp plates (Nunc, Rochild, Denmark) and anti-cytokine paired antibodies according to the manufacturer's instructions. Samples were analyzed in duplicate for murine/rat IL-17, murine IL-10, murine TNF, murine IL-4 (eBioscience), murine IFN-γ, rat IFN-γ, rat IL-4 (R&D, Minneapolis, Minn.), rat IL-10 and rat TNF (BD Biosciences). The results were calculated using standard curves made on the basis of known concentrations of the appropriate recombinant cytokines. […]

SCC = test: IFN-g and IL-17 release from rat spinal cord infiltrating cells (SCC); type: cell-based; conditions: unstimulated SCC isolated at the peak of EAE
Text: as §1
Cytokine concentration in cell culture supernatants was determined by sandwich ELISA using MaxiSorp plates (Nunc, Rochild, Denmark) and anti-cytokine paired antibodies according to the manufacturer's instructions. Samples were analyzed in duplicate for murine/rat IL-17, murine IL-10, murine TNF, murine IL-4 (eBioscience), murine IFN-γ, rat IFN-γ, rat IL-4 (R&D, Minneapolis, Minn.), rat IL-10 and rat TNF (BD Biosciences). The results were calculated using standard curves made on the basis of known concentrations of the appropriate recombinant cytokines.
(§2) Next, we determined the influence of Saq-NO on encephalitogen-specific generation of IFN-g and IL-17. […]

DLNC = test: Viability of rat DLNC (MTT); type: cell-based; conditions: DLNC restimulated with MBP
Text: Experimental animals (C57BL/6 mice, BALB/c mice and Dark Agouti rats) were obtained from the Animal House Facility of the Institute for Biological Research “Sinisa Stanković”, Belgrade, Serbia. Spleen cells (SPC) were isolated from murine spleens and lymph node cells (LNC) were obtained from rat cervical lymph nodes of untreated animals. Draining lymph node cells (DLNC) were obtained from popliteal lymph nodes 8-10 days after immunization of rats with myelin basic protein (guinea pig MBP, kind gift from professor Alexander Fluegel, University of Goettingen, Germany) and complete Freund's adjuvant (CFA, Difco, Detroit, Mich.). The organs were mechanically disrupted, passed through 40-μm nylon mesh filter and the resulting suspension was collected by centrifugation. […] Obtained purity of CD4 population was more than 97% as determined by flow cytometry. […]
(§3) In order to assess the viability of SPC, LNC, DLNC and SCC by mitochondrial activity assay we used the mitochondrial-dependent reduction of 3-(4,5-dimethylthiazol-2-yl)-2,5-[…] bromide (MTT) to formazan. […] The absorbances in MTT assay were measured at […], with a correction at 690 nm, using an automated microplate reader (LKB 5060-006, LKB, Vienna, Austria).
as §2

murine CD4+ cells = test: Viability of murine CD4+ cells; type: cell-based, mouse; conditions: 24 hours; effect less than on cytokine generation
Experimental: In order to assess the viability of SPC, LNC, DLNC and SCC by mitochondrial activity assay we used the mitochondrial-dependent reduction of 3-(4,5-dimethylthiazol-2-yl)-[…] (MTT) to formazan. At the end of appropriate treatments, SPC and LNC were collected in tubes, spun down, supernatants removed and the cell pellets dissolved in […] MTT (Sigma-Aldrich) solution. Incubation with MTT lasted for 30 minutes at 37° C. and cells were centrifuged once more. DMSO was added to the pellets to dissolve the formazan crystals. The absorbances in MTT assay were measured at […], with a correction at 690 nm, using an automated microplate reader (LKB 5060-006, LKB, Vienna, Austria).
CD4+ cells were purified from C57BL/6 SPC and stimulated with anti-CD3 and anti-CD28 antibodies in the presence of various concentrations of Saq-NO for 24 hours. The influence of Saq-NO on cytokine generation was compared to its influence on CD4+ cell viability and to the influence of Saq on the same parameters. […] Thus, Saq-NO directly affects T cell cytokine production.

rat LNC [4] = test: Viability of rat LNC (MTT mitochondrial activity assay); type: cell-based; conditions: ConA, 24 hours, difference not statistically significant
Text: Experimental animals (C57BL/6 mice, BALB/c mice and Dark Agouti rats) were obtained from the Animal House Facility of the Institute for Biological Research “Sinisa Stanković”, Belgrade, Serbia. Spleen cells (SPC) were isolated from murine spleens and lymph node cells (LNC) were obtained from rat cervical lymph nodes of untreated animals. Draining lymph node cells (DLNC) were obtained from popliteal lymph nodes 8-10 days after immunization of rats with myelin basic protein (guinea pig MBP, kind gift from professor Alexander Fluegel, University of Goettingen, Germany) and complete Freund's adjuvant (CFA, Difco, Detroit, Mich.). The organs were mechanically disrupted, passed through 40-μm nylon mesh filter and the resulting suspension was collected by centrifugation. Red blood cells from single cell suspensions obtained from spleens were lysed using RBC Lysis Buffer (eBioscience, San Diego, Calif.). […] Obtained purity of CD4 population was more than 97% as determined by flow cytometry. […]
as §3

In the case of `CC(C)(C)NC(=O)[C@@H]1C[C@@H]2CCCC[C@@H]2CN1C[C@@H](O)[C@H](Cc1ccccc1)NC(=O)[C@H](CC(N)=O)NC(=O)c1ccc2ccccc2n1` [Saq, (2S)—N-[(2S,3R)-4-[(3S)-3-(tert-butylcarbamoyl)-decahydroisoquinolin-2-iy]-3-hydroxy-1-phenylbutan-2-il]-2-(quinolin-2-ylformamido)butanediamide, reference compound], the “PHA or anti-CD3-induced proliferation” value [1] is listed as “inhibited”, the TNF-alpha synthesis (human PBMC; 10 to 20 μM) is listed as “without influencing” and the “Synthesis of IL-2 and IFN-gamma production” value (human PBMC; concentration between 10 and 20 μM) is listed as “downregulate”.
For `CC(C)(C)NC(=O)C1C[C@@H]2CCCC[C@@H]2CN1CC(O[N+](=O)[O-])[C@H](Cc1ccccc1)NC(=O)C(CC(N)=O)NC(=O)c1ccc2ccccc2n1` (stereo partly drawn) [Saq-NO, nitric ester of Saquinavir], the “Anti-cancer properties in comparison to Saq” value [2] is given as “superior”, the “Release of the examined cytokines IFN-g, IL-17, IL-10 and TNF” value (rat LNC [3]) is given as “dose-dependently inhibited” and the “IFN-g and IL-17 release” value (SCC) is given as “potently inhibited”. For the same molecule, the DLNC viability (DLNC) was “much less than its influence on IFN-g and IL-17 production”, the “CD4+ cell viability” value (murine CD4+ cells) was “statistically significantly inhibited” and the LNC viability (rat LNC [4]) was “affected only with the highest dose”.
